In the supplement of paper PMC11061612:

What was measured:
[1] = compound: O=C(Nc1ccc2[nH]nc(-c3ccncc3)c2c1)[C@@H]1CCN(CC(=O)N2CCN(c3ccc(-c4ncccn4)cc3)CC2)C1; conditions: max 5 µM
Method in brief: (§1)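 Cancer cell lines in 1536-well plates (7.5 μl DMEM/F12 or RPMI, 10% FBS) were held 24 hours at 37°C and 5% CO2 and then dosed for 72 hours at a final DMSO of typically 0.2%. Viability was taken from CellTiter-Glo 2.0 luminescence, scaled between blank-well and DMSO-well means. Curves were fitted as two-parameter logistic models with a non-linear mixed effects model, from which the single-agent IC50 was taken.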

Paclitaxel = compound: CC(=O)O[C@H]1C(=O)[C@@]2(C)[C@H]([C@H](OC(=O)c3ccccc3)[C@]3(O)C[C@H](OC(=O)[C@H](O)[C@@H](NC(=O)c4ccccc4)c4ccccc4)C(C)=C1C3(C)C)[C@]1(OC(C)=O)CO[C@@H]1C[C@@H]2O [Paclitaxel]; conditions: max 3 µM
Method in brief: as §1

Taselisib = compound: Cc1nc(-c2cn3c(n2)-c2ccc(-c4cnn(C(C)(C)C(N)=O)c4)cc2OCC3)n(C(C)C)n1 [Taselisib]; conditions: max 10 µM
Method in brief: as §1

Olaparib = compound: O=C(c1cc(Cc2n[nH]c(=O)c3ccccc23)ccc1F)N1CCN(C(=O)C2CC2)CC1 [Olaparib]; conditions: max 10 µM
Method in brief: as §1

Etoposide = compound: COc1cc([C@@H]2c3cc4c(cc3[C@@H](O[C@@H]3O[C@@H]5CO[C@@H](C)O[C@H]5[C@H](O)[C@H]3O)[C@H]3COC(=O)[C@H]23)OCO4)cc(OC)c1O [Etoposide]; conditions: max 10 µM
Method in brief: as §1

AZD1775 = compound: C=CCn1c(=O)c2cnc(Nc3ccc(N4CCN(C)CC4)cc3)nc2n1-c1cccc(C(C)(C)O)n1 [AZD1775]; conditions: max 3 µM
Method in brief: as §1

AZD1390 = compound: CC(C)n1c(=O)n(C)c2cnc3cc(F)c(-c4ccc(OCCCN5CCCCC5)nc4)cc3c21 [AZD1390]; conditions: max 0.3 µM
Method in brief: as §1

Gefitinib = compound: COc1cc2ncnc(Nc3ccc(F)c(Cl)c3)c2cc1OCCCN1CCOCC1 [Gefitinib]; conditions: max 10 µM
Method in brief: as §1

SRA737 = compound: N#Cc1cnc(Nc2cc(NC[C@H]3CNCCO3)c(C(F)(F)F)cn2)cn1 [SRA737]; conditions: max 10 µM
Method in brief: as §1

Trametinib = compound: CC(=O)Nc1cccc(-n2c(=O)n(C3CC3)c(=O)c3c(Nc4ccc(I)cc4F)n(C)c(=O)c(C)c32)c1 [Trametinib]; conditions: max 1 µM
Method in brief: as §1

SN-38 = compound: CCc1c2c(nc3ccc(O)cc13)-c1cc3c(c(=O)n1C2)COC(=O)[C@]3(O)CC [SN-38]; conditions: max 0.3 µM
Method in brief: as §1

AZD5363 = compound: C1CN(CCC1(C(=O)N[C@@H](CCO)C2=CC=C(C=C2)Cl)N)C3=NC=NC4=C3C=CN4 [AZD5363]; conditions: max 10 µM
Method in brief: as §1

Carboplatin = compound: C1CC(C1)(C(=O)[O-])C(=O)[O-].N.N.[Pt+2] [Carboplatin]; conditions: max 10 µM
Method in brief: as §1

Alisertib = compound: COc1cc(Nc2ncc3c(n2)-c2ccc(Cl)cc2C(c2c(F)cccc2OC)=NC3)ccc1C(=O)O [Alisertib]; conditions: max 10 µM
Method in brief: as §1

Savolitinib = compound: C[C@@H](c1ccc2nccn2c1)n1nnc2ncc(-c3cnn(C)c3)nc21 [Savolitinib]; conditions: max 1 µM
Method in brief: as §1

Palbociclib = compound: CC(=O)c1c(C)c2cnc(Nc3ccc(N4CCNCC4)cn3)nc2n(C2CCCC2)c1=O [Palbociclib]; conditions: max 10 µM
Method in brief: as §1

MK-2206 = compound: NC1(c2ccc(-c3nc4ccn5c(=O)[nH]nc5c4cc3-c3ccccc3)cc2)CCC1 [MK-2206]; conditions: max 10 µM
Method in brief: as §1

5-Fluorouracil = compound: O=c1[nH]cc(F)c(=O)[nH]1 [5-Fluorouracil]; conditions: max 20 µM
Method in brief: as §1

Crizotinib = compound: C[C@@H](Oc1cc(-c2cnn(C3CCNCC3)c2)cnc1N)c1c(Cl)ccc(F)c1Cl [Crizotinib]; conditions: max 10 µM
Method in brief: as §1

Lapatinib = compound: CS(=O)(=O)CCNCc1ccc(-c2ccc3ncnc(Nc4ccc(OCc5cccc(F)c5)c(Cl)c4)c3c2)o1 [Lapatinib]; conditions: max 10 µM
Method in brief: as §1

AZD7648 = compound: Cc1cc2ncnn2cc1Nc1ncc2c(n1)n(C1CCOCC1)c(=O)n2C [AZD7648]; conditions: max 10 µM
Method in brief: as §1

AZD8186 = compound: C[C@@H](Nc1cc(F)cc(F)c1)c1cc(C(=O)N(C)C)cc2c(=O)cc(N3CCOCC3)oc12 [AZD8186]; conditions: max 10 µM
Method in brief: as §1

AZD2811 = compound: CCN(CCO)CCCOc1ccc2c(Nc3cc(CC(=O)Nc4cccc(F)c4)[nH]n3)ncnc2c1 [AZD2811]; conditions: max 1 µM
Method in brief: as §1

Venetoclax = compound: CC1(C)CCC(CN2CCN(c3ccc(C(=O)NS(=O)(=O)c4ccc(NCC5CCOCC5)c([N+](=O)[O-])c4)c(Oc4cnc5[nH]ccc5c4)c3)CC2)=C(c2ccc(Cl)cc2)C1 [Venetoclax]; conditions: max 1 µM
Method in brief: as §1

AZD0156 = compound: CN(C)CCCOc1ccc(-c2ccc3ncc4c(c3c2)n(C2CCOCC2)c(=O)n4C)cn1 [AZD0156]; conditions: max 3 µM
Method in brief: as §1

Gemcitabine = compound: Nc1ccn([C@@H]2O[C@H](CO)[C@@H](O)C2(F)F)c(=O)n1 [Gemcitabine]; conditions: max 0.3 µM
Method in brief: as §1

AZD6738 = compound: C[C@@H]1COCCN1C2=NC(=NC(=C2)C3(CC3)[S@](=N)(=O)C)C4=C5C=CNC5=NC=C4 [AZD6738]; conditions: max 10 µM
Method in brief: as §1

AZD5153 = compound: COc1nnc2ccc(N3CCC(c4ccc(OCCN5CCN(C)C(=O)[C@H]5C)cc4)CC3)nn12 [AZD5153]; conditions: max 1 µM
Method in brief: as §1

Prexasertib = compound: COc1cccc(OCCCN)c1-c1cc(Nc2cnc(C#N)cn2)n[nH]1 [Prexasertib]; conditions: max 1 µM
Method in brief: as §1

Selumetinib = compound: Cn1cnc2c(F)c(Nc3ccc(Br)cc3Cl)c(C(=O)NOCCO)cc21 [Selumetinib]; conditions: max 10 µM
Method in brief: as §1

AZD5991 = compound: Cc1c2c(nn1C)CSCc1cc(n(C)n1)CSc1cc(c3ccccc3c1)OCCCc1c(C(=O)O)n(C)c3c-2c(Cl)ccc13 [AZD5991]; conditions: max 1 µM
Method in brief: as §1

Dasatinib = compound: CC1=C(C(=CC=C1)Cl)NC(=O)C2=CN=C(S2)NC3=CC(=NC(=N3)C)N4CCN(CC4)CCO [Dasatinib]; conditions: max 2 µM
Method in brief: as §1

SG3199 = compound: CC1=CN2[C@@H](C1)C=NC3=CC(=C(C=C3C2=O)OC)OCCCCCOC4=C(C=C5C(=C4)N=C[C@@H]6CC(=CN6C5=O)C)OC [SG3199]; conditions: max 0.001 µM
Method in brief: as §1

Doxorubicin = compound: COc1cccc2c1C(=O)c1c(O)c3c(c(O)c1C2=O)C[C@@](O)(C(=O)CO)C[C@@H]3O[C@H]1C[C@H](N)[C@H](O)[C@H](C)O1 [Doxorubicin]; conditions: max 1 µM
Method in brief: as §1

AZD4320 = compound: CN(CC[C@H](CSC1=CC=CC=C1)NC2=C(C=C(C=C2)S(=O)(=O)NC(=O)C3=CC=C(C=C3)N4CCC(CC4)[C@H](C5=CC=CC=C5C6=CC=C(C=C6)Cl)O)S(=O)(=O)C(F)(F)F)CCO [AZD4320]; conditions: max 1 µM
Method in brief: as §1

| Cell Line | IC50, cell viability 72 h [1] [µM] | IC50, cell viability 72 h (Paclitaxel) [µM] | IC50, cell viability 72 h (Taselisib) [µM] | IC50, cell viability 72 h (Olaparib) [µM] | IC50, cell viability 72 h (Etoposide) [µM] | IC50, cell viability 72 h (AZD1775) [µM] | IC50, cell viability 72 h (AZD1390) [µM] | IC50, cell viability 72 h (Gefitinib) [µM] | IC50, cell viability 72 h (SRA737) [µM] | IC50, cell viability 72 h (Trametinib) [µM] | IC50, cell viability 72 h (SN-38) [µM] | IC50, cell viability 72 h (AZD5363) [µM] | IC50, cell viability 72 h (Carboplatin) [µM] | IC50, cell viability 72 h (Alisertib) [µM] | IC50, cell viability 72 h (Savolitinib) [µM] | IC50, cell viability 72 h (Palbociclib) [µM] | IC50, cell viability 72 h (MK-2206) [µM] | IC50, cell viability 72 h (5-Fluorouracil) [µM] | IC50, cell viability 72 h (Crizotinib) [µM] | IC50, cell viability 72 h (Lapatinib) [µM] | IC50, cell viability 72 h (AZD7648) [µM] | IC50, cell viability 72 h (AZD8186) [µM] | IC50, cell viability 72 h (AZD2811) [µM] | IC50, cell viability 72 h (Venetoclax) [µM] | IC50, cell viability 72 h (AZD0156) [µM] | IC50, cell viability 72 h (Gemcitabine) [µM] | IC50, cell viability 72 h (AZD6738) [µM] | IC50, cell viability 72 h (AZD5153) [µM] | IC50, cell viability 72 h (Prexasertib) [µM] | IC50, cell viability 72 h (Selumetinib) [µM] | IC50, cell viability 72 h (AZD5991) [µM] | IC50, cell viability 72 h (Dasatinib) [µM] | IC50, cell viability 72 h (SG3199) [µM] | IC50, cell viability 72 h (Doxorubicin) [µM] | IC50, cell viability 72 h (AZD4320) [µM] |
| --- | --- | --- | --- | --- | --- | --- | --- | --- | --- | --- | --- | --- | --- | --- | --- | --- | --- | --- | --- | --- | --- | --- | --- | --- | --- | --- | --- | --- | --- | --- | --- | --- | --- | --- | --- |
| 22RV1 (Prostate Carcinoma) | > 5 | 0.0506 | 1.86 | > 10 | > 10 | > 3 | > 0.3 | > 10 | > 10 | > 1 | 0.0289 | > 10 | > 10 | > 10 | > 1 | > 10 | 6.05 | > 20 | > 10 | > 10 | > 10 | > 10 | > 1 | > 1 | > 3 | 0.101 | > 10 | > 1 | > 1 | > 10 | > 1 | > 2 | > 0.001 | 0.426 | > 1 |
| 769-P (Kidney Carcinoma) | > 5 | 0.109 | > 10 | > 10 | > 10 | 0.874 | > 0.3 | 8.48 | 1.54 | > 1 | 0.159 | > 10 | > 10 | > 10 | > 1 | 2.87 | > 10 | 12.4 | 4.59 | 5.24 | > 10 | > 10 | > 1 | > 1 | > 3 | 0.0243 | 1.5 | 0.168 | 0.0406 | > 10 | > 1 | 0.253 | > 0.001 | 0.816 | > 1 |
| A2780 (Ovarian Carcinoma) | 0.243 | 0.00438 | 0.117 | 9.95 | 0.582 | 0.813 | > 0.3 | > 10 | > 10 | 0.0391 | 0.0113 | 1.83 | > 10 | 0.386 | > 1 | 1.16 | 1.61 | 9.03 | 2.19 | > 10 | 9.29 | 1.38 | 0.37 | > 1 | > 3 | 0.00845 | 3.65 | 0.0737 | 0.334 | 3.53 | 0.964 | > 2 | > 0.001 | 0.0483 | > 1 |
| CGTH-W-1 (Thyroid Gland Carcinoma) | > 5 | 2.59 | 9.16 | > 10 | > 10 | > 3 | > 0.3 | > 10 | > 10 | > 1 | 0.0308 | > 10 | > 10 | > 10 | > 1 | > 10 | > 10 | > 20 | > 10 | > 10 | > 10 | > 10 | > 1 | > 1 | > 3 | 0.119 | > 10 | > 1 | 0.129 | > 10 | > 1 | 0.544 | > 0.001 | 0.934 | > 1 |
| EB2 (Burkitt's Lymphoma) | > 5 | 0.0301 | 2.02 | > 10 | 0.198 | 0.348 | > 0.3 | > 10 | 1.03 | > 1 | 0.00403 | 3.27 | > 10 | 7.23 | > 1 | > 10 | 3.04 | > 20 | 6.78 | > 10 | > 10 | 4.92 | > 1 | > 1 | > 3 | 0.0138 | 1.63 | 0.348 | 0.0078 | > 10 | > 1 | 0.494 | > 0.001 | 0.0297 | > 1 |
